Measured values taken from patent publication US20250313533A1, “QUINOLINE CARBOXYLIC ACID ESTER COMPOUND AND PREPARATION METHOD AND USE THEREOF” (priority 2019, published 2025).

Assays:
[1] = system: pathogenic bacteria causing black shank in potatoes; experiment: In vitro bactericidal activity, black shank in potatoes; assay type: cell-based; details: read-out: inhibitory rate; for inhibition at 1 ppm: dosage 1 ppm; for inhibition at 5 ppm: dosage 5 ppm
[2] = system: pathogenic bacteria causing bacterial wilt in cassava; experiment: organism not typed; assay type: cell-based; details: read-out: inhibitory rate
[3] = system: bacterial wilt in tobacco; experiment: whole plant or invertebrate; details: Nicotiana tabacum, read-out: efficacy against bacterial wilt in tobacco
[4] = system: indoor potted cucumber seedlings; experiment: Effect of improving growth and development of crops; assay type: in vivo; design: Rate of growth rate increase (%): concentration or dose not given beside the values; details: versus blank control; for Rate of chlorophyll content increase (%) / Rate of leaf area increase (%): 14 days after application; for Rate of growth rate increase (%): plant height 14 days after application; for Rate of leaf area increase (%): second leaf
In short: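 Growth effects were scored as percent increases in height growth rate, second-leaf area and chlorophyll (SPAD meter), comparing values taken before and 14 days after application.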

[5] = system: fruit blotch in watermelons; experiment: whole plant or invertebrate; details: read-out: efficacy against fruit blotch in watermelons
[6] = system: pathogenic bacteria causing fire blight in pears; experiment: In vitro bactericidal activity, fire blight in pears; assay type: cell-based, erwinia; details: Erwinia, read-out: inhibitory rate; for inhibition at 1 ppm: dosage 1 ppm; for inhibition at 5 ppm: dosage 5 ppm
[7] = system: soft rot in Chinese cabbages; experiment: whole plant or invertebrate; details: 48 h, read-out: efficacy against soft rot in Chinese cabbages
[8] = system: pathogenic bacteria causing fruit blotch in watermelons; experiment: In vitro bactericidal activity, fruit blotch in watermelons; assay type: cell-based, acidovorax; details: read-out: inhibitory rate; for inhibition at 1 ppm: dosage 1 ppm; for inhibition at 5 ppm: dosage 5 ppm
[9] = system: pathogenic bacteria causing bacterial angular leaf spot in cucumbers; experiment: In vitro bactericidal activity, bacterial angular leaf spot in cucumbers; assay type: cell-based, pseudomonas; details: read-out: inhibitory rate; for inhibition at 1 ppm: dosage 1 ppm; for inhibition at 5 ppm: dosage 5 ppm
[10] = system: pathogenic bacteria causing black rot in Chinese cabbages; experiment: In vitro bactericidal activity, black rot in Chinese cabbages; assay type: cell-based, xanthomonas; details: Xanthomonas, read-out: inhibitory rate; for inhibition at 1 ppm: dosage 1 ppm; for inhibition at 5 ppm: dosage 5 ppm
[11] = system: pathogenic bacteria causing stem rot in sweet potatoes; experiment: In vitro bactericidal activity, stem rot in sweet potatoes; assay type: cell-based, dikia; details: read-out: inhibitory rate; for inhibition at 1 ppm: dosage 1 ppm; for inhibition at 5 ppm: dosage 5 ppm
black shank in potatoes = experiment: Living crops in vivo protective activity, potatoes (root irrigation); details: Solanum tuberosum, read-out: efficacy against black shank in potatoes; for pest or weed control at 5 ppm: dosage 5 ppm; for pest or weed control at 10 ppm: dosage 10 ppm
Description: Root irrigation was carried out on the potatoes for tests according to the designed concentration of the agents. The dosage for each plant was 200 mL and was kept consistent (also for the control). The black shank bacteria were inoculated on the second day after the application. The results were investigated according to the disease condition.

[12] = system: pathogenic bacteria causing bacterial blight in rice; experiment: whole plant or invertebrate; assay type: cell-based, xanthomonas; details: read-out: inhibitory rate
[13] = system: stem rot in sweet potatoes; experiment: whole plant or invertebrate; details: read-out: efficacy against stem rot in sweet potatoes
bacterial blight in rice = experiment: whole plant or invertebrate; details: Oryza sativa, read-out: efficacy against bacterial blight in rice
cucumber seedlings = experiment: Safety for plant growth after application; assay type: in vivo; details: dosage 200 ppm
In short: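 Using pot-grown cucumber seedlings indoors, we recorded plant height growth rate together with chlorophyll content and leaf area following compound application.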

[14] = system: pathogenic bacteria causing bacterial wilt in tobacco; experiment: whole plant or invertebrate; assay type: cell-based, ralstonia; details: read-out: inhibitory rate

Row | Structure (SMILES) | inhibition at 1 ppm [1] [%] | inhibition at 5 ppm [1] [%] | inhibition at 1 ppm [2] [%] | inhibition at 5 ppm [2] [%] | pest or weed control at 5 ppm [3] [%] | pest or weed control at 10 ppm [3] [%] | Rate of chlorophyll content increase (%) [4] [%] | Rate of growth rate increase (%) [4] [%] | Rate of leaf area increase (%) [4] [%] | pest or weed control at 5 ppm [5] [%] | pest or weed control at 10 ppm [5] [%] | inhibition at 1 ppm [6] [%] | inhibition at 5 ppm [6] [%] | pest or weed control at 5 ppm [7] [%] | pest or weed control at 10 ppm [7] [%] | inhibition at 1 ppm [8] [%] | inhibition at 5 ppm [8] [%] | inhibition at 1 ppm [9] [%] | inhibition at 5 ppm [9] [%] | inhibition at 1 ppm [10] [%] | other results
1 | O=C(OCCO)c1cn(C2CC2)c2cc(OCC(F)(F)F)c(F)cc2c1=O [Compound 275] | ≥ 90 | ≥ 90 | ≥ 90 | ≥ 90 | ≥ 90 | ≥ 90 | 13 | 12 | 11 | ≥ 90 | ≥ 90 | ≥ 90 | ≥ 90 | ≥ 90 | ≥ 90 | ≥ 90 | ≥ 90 | ≥ 90 | ≥ 90 | ≥ 90 | inhibition at 5 ppm [10]: ≥ 90%; inhibition at 1 ppm [11]: ≥ 90%; inhibition at 5 ppm [11]: ≥ 90%; pest or weed control at 5 ppm (black shank in potatoes): ≥ 90%; pest or weed control at 10 ppm (black shank in potatoes): ≥ 90%; inhibition at 1 ppm [12]: ≥ 90%; inhibition at 5 ppm [12]: ≥ 90%; pest or weed control at 5 ppm [13]: ≥ 90%; pest or weed control at 10 ppm [13]: ≥ 90%; pest or weed control at 5 ppm (bacterial blight in rice): ≥ 90%; pest or weed control at 10 ppm (bacterial blight in rice): ≥ 90%; safety for plant growth (discoloration, necrosis, wilt, malformation) (cucumber seedlings): safe for plant growth; inhibition at 1 ppm [14]: ≥ 90%; inhibition at 5 ppm [14]: ≥ 90%
2 | COCCOC(=O)c1cn(C2CC2)c2cc(OC)c(F)cc2c1=O [Compound 281] | ≥ 90 | ≥ 90 | ≥ 90 | ≥ 90 | ≥ 90 | ≥ 90 | 16 | 13 | 13 | ≥ 90 | ≥ 90 | ≥ 90 | ≥ 90 | ≥ 90 | ≥ 90 | ≥ 90 | ≥ 90 | ≥ 90 | ≥ 90 | ≥ 90 | inhibition at 5 ppm [10]: ≥ 90%; inhibition at 1 ppm [11]: ≥ 90%; inhibition at 5 ppm [11]: ≥ 90%; pest or weed control at 5 ppm (black shank in potatoes): ≥ 90%; pest or weed control at 10 ppm (black shank in potatoes): ≥ 90%; inhibition at 1 ppm [12]: ≥ 90%; inhibition at 5 ppm [12]: ≥ 90%; pest or weed control at 5 ppm [13]: ≥ 90%; pest or weed control at 10 ppm [13]: ≥ 90%; pest or weed control at 5 ppm (bacterial blight in rice): ≥ 90%; pest or weed control at 10 ppm (bacterial blight in rice): ≥ 90%; safety for plant growth (discoloration, necrosis, wilt, malformation) (cucumber seedlings): safe for plant growth; inhibition at 1 ppm [14]: ≥ 90%; inhibition at 5 ppm [14]: ≥ 90%
3 | COCCOC(=O)c1cn(C2CC2)c2cc(OC(C)(C)C)c(F)cc2c1=O [Compound 287] | ≥ 90 | ≥ 90 | ≥ 90 | ≥ 90 | ≥ 90 | ≥ 90 | 13 | 10 | 10 | ≥ 90 | ≥ 90 | ≥ 90 | ≥ 90 | ≥ 90 | ≥ 90 | ≥ 90 | ≥ 90 | ≥ 90 | ≥ 90 | ≥ 90 | inhibition at 5 ppm [10]: ≥ 90%; inhibition at 1 ppm [11]: ≥ 90%; inhibition at 5 ppm [11]: ≥ 90%; pest or weed control at 5 ppm (black shank in potatoes): ≥ 90%; pest or weed control at 10 ppm (black shank in potatoes): ≥ 90%; inhibition at 1 ppm [12]: ≥ 90%; inhibition at 5 ppm [12]: ≥ 90%; pest or weed control at 5 ppm [13]: ≥ 90%; pest or weed control at 10 ppm [13]: ≥ 90%; pest or weed control at 5 ppm (bacterial blight in rice): ≥ 90%; pest or weed control at 10 ppm (bacterial blight in rice): ≥ 90%; safety for plant growth (discoloration, necrosis, wilt, malformation) (cucumber seedlings): safe for plant growth; inhibition at 1 ppm [14]: ≥ 90%; inhibition at 5 ppm [14]: ≥ 90%
4 | COCCOC(=O)c1cn(C2CC2)c2cc(OCC(F)(F)F)c(F)cc2c1=O [Compound 292, 2-methoxyethyl 1-cyclopropyl-6-fluoro-4-oxo-7-(2,2,2-trifluoroethoxy)-1,4-dihydroquinoline-3-carboxylate] | ≥ 90 | ≥ 90 | ≥ 90 | ≥ 90 | ≥ 90 | ≥ 90 | 16 | 15 | 15 | ≥ 90 | ≥ 90 | ≥ 90 | ≥ 90 | ≥ 90 | ≥ 90 | ≥ 90 | ≥ 90 | ≥ 90 | ≥ 90 | ≥ 90 | inhibition at 5 ppm [10]: ≥ 90%; inhibition at 1 ppm [11]: ≥ 90%; inhibition at 5 ppm [11]: ≥ 90%; pest or weed control at 5 ppm (black shank in potatoes): ≥ 90%; pest or weed control at 10 ppm (black shank in potatoes): ≥ 90%; inhibition at 1 ppm [12]: ≥ 90%; inhibition at 5 ppm [12]: ≥ 90%; pest or weed control at 5 ppm [13]: ≥ 90%; pest or weed control at 10 ppm [13]: ≥ 90%; pest or weed control at 5 ppm (bacterial blight in rice): ≥ 90%; pest or weed control at 10 ppm (bacterial blight in rice): ≥ 90%; safety for plant growth (discoloration, necrosis, wilt, malformation) (cucumber seedlings): safe for plant growth; inhibition at 1 ppm [14]: ≥ 90%; inhibition at 5 ppm [14]: ≥ 90%
5 | COCCOC(=O)c1cn(C2CC2)c2cc(OC3CC3)c(F)cc2c1=O [Compound 294, 2-methoxyethyl 7-cyclopropoxy-1-cyclopropyl-6-fluoro-4-oxo-1,4-dihydroquinoline-3-carboxylate] | ≥ 90 | ≥ 90 | ≥ 90 | ≥ 90 | ≥ 90 | ≥ 90 | 10 | 9 | 12 | ≥ 90 | ≥ 90 | ≥ 90 | ≥ 90 | ≥ 90 | ≥ 90 | ≥ 90 | ≥ 90 | ≥ 90 | ≥ 90 | ≥ 90 | inhibition at 5 ppm [10]: ≥ 90%; inhibition at 1 ppm [11]: ≥ 90%; inhibition at 5 ppm [11]: ≥ 90%; pest or weed control at 5 ppm (black shank in potatoes): ≥ 90%; pest or weed control at 10 ppm (black shank in potatoes): ≥ 90%; inhibition at 1 ppm [12]: ≥ 90%; inhibition at 5 ppm [12]: ≥ 90%; pest or weed control at 5 ppm [13]: ≥ 90%; pest or weed control at 10 ppm [13]: ≥ 90%; pest or weed control at 5 ppm (bacterial blight in rice): ≥ 90%; pest or weed control at 10 ppm (bacterial blight in rice): ≥ 90%; safety for plant growth (discoloration, necrosis, wilt, malformation) (cucumber seedlings): safe for plant growth; inhibition at 1 ppm [14]: ≥ 90%; inhibition at 5 ppm [14]: ≥ 90%
6 | COCCOC(=O)c1cn(C2CC2)c2cc(OC3CCCC3)c(F)cc2c1=O [Compound 296] | ≥ 90 | ≥ 90 | ≥ 90 | ≥ 90 | ≥ 90 | ≥ 90 | 16 | 12 | 11 | ≥ 90 | ≥ 90 | ≥ 90 | ≥ 90 | ≥ 90 | ≥ 90 | ≥ 90 | ≥ 90 | ≥ 90 | ≥ 90 | ≥ 90 | inhibition at 5 ppm [10]: ≥ 90%; inhibition at 1 ppm [11]: ≥ 90%; inhibition at 5 ppm [11]: ≥ 90%; pest or weed control at 5 ppm (black shank in potatoes): ≥ 90%; pest or weed control at 10 ppm (black shank in potatoes): ≥ 90%; inhibition at 1 ppm [12]: ≥ 90%; inhibition at 5 ppm [12]: ≥ 90%; pest or weed control at 5 ppm [13]: ≥ 90%; pest or weed control at 10 ppm [13]: ≥ 90%; pest or weed control at 5 ppm (bacterial blight in rice): ≥ 90%; pest or weed control at 10 ppm (bacterial blight in rice): ≥ 90%; safety for plant growth (discoloration, necrosis, wilt, malformation) (cucumber seedlings): safe for plant growth; inhibition at 1 ppm [14]: ≥ 90%; inhibition at 5 ppm [14]: ≥ 90%
